Experiment [1] concerns the target T1, CtBP2 (Homo sapiens, UniProt P56545).
T1 construct: expressed in transfected cells; host or cells: human UCB-MSC, lysate
As to the kind of experiment: DARTS assay, CtBP2. Format: binding. As to the method: To identify proteins binding to compounds of the present invention, YJ101 (Chemical Formula 1), YJ102 (Chemical Formula 2), and YJ103 (Chemical Formula 3), in human umbilical cord blood-derived mesenchymal stem cells (UCB-MSCs), DART assay was performed. Specifically, UCB-MSCs (Kang Stem Cell, Passage #6) were dispensed into a 100 mm culture dish and incubated in a KSB-3 medium (Cat. K3901, Kang Stem Cell) containing 10% FBS (Cat. 16000044), and then collected and washed with PBS. Thereafter, the cells were added with an IP50 lysis buffer [50 mM Tris-HCl (pH 7.4), 150 mM NaCl, 2 mM MgCl2, and 0.1% NP40], sonicated, and centrifuged at 13,000×g for 10 minutes at 4° C. to obtain the supernatant. The supernatant was added with 1/10 volume of 10×TNC buffer [500 mM Tris-HCl (pH 8.0), 500 mM NaCl, and 100 mM CaCl2)], and protein concentration was measured using a Bradford method. Thereafter, 9 μl of a cell lysate and 1 μl of YJ101 (20 or M), YJ102 (20 or 30 μM), or YJ103 (20 or 40 μM) were mixed in a microcentrifuge tube and incubated at room temperature for 1 hour. A control group was treated with 1 μl of DMSO. After incubation, 1 μl (1 mg/ml) of Pronase (Cat. 10 165 921 001, Roche) diluted to 1 mg/ml using a 1×TNC buffer was added to the microcentrifuge tube and incubated at 37° C. for 15 minutes. After incubation, ⅕ volume of a 5×SDS-PAGE loading buffer was added, heated at 100° C. for 5 minutes, and then SDS-PAGE and Coomassie blue staining were performed. In addition, UCB-MSCs were dispensed at 4×10^5 cells/ml in a 60 mm culture dish, and after 24 hours, 4 μg of FLAG-CtBP1 or FLAG-CtBP2 DNA was transfected using 4 μl of jetPRIME. After 48 hours, the cells were collected, and proteins were extracted and quantified using the same method as above. DARTS assay was performed with the cell lysate of CtBP1 and Y102 labeled with FLAG, and Western blot assay was performed with a flag antibody (Cat. F3165, Sigma).

The test system of experiment [2] is AD-MSC. As to the kind of experiment: Tuj1 immunochemical assay, AD-MSC. Conditions: 10, 20 or 30 μM, 5 days. The experiment is classed as cell-based, human. As to the method:
To determine whether transdifferentiation into ciNSC5, neural progenitor cells, occurred similarly even in MSCs of different origins when human UCB-MSCs were treated with YJ101, YJ102, or YJ103 for 5 days, the expression of neuronal markers in differentiated ciNSC5 was confirmed by immunochemical assay using MSCs from human adipose-derived mesenchymal stem cells (AD-MSCs), human bone marrow-derived mesenchymal stem cells ([…]) and human umbilical cord blood-derived mesenchymal stem cells (UCB-MSCs; Promo Cells). Specifically, AD-MSC (StemPro™ Human Adipose-Derived Stem Cell, Gibco, Passage #6) was incubated in a MesenPRO RS™ medium, BM-MSC (ATCC, Passage #6) was incubated in a Mesenchymal Stem Cell Basal Medium for Adipose, Umbilical and Bone Marrow-derived MSC (Cat. PCS-500-030, ATCC) medium, and UCB-MSC (Promo Cell, Passage #6) was incubated in a CellCor™ CD MSC (Cat. YSP001, Xell Therapeutics) medium, and then dispensed at 2.1×10^4 cells/well in a 12-well plate with an 18 mm cover glass (circular) (DMSO control group was dispensed at 3.5×10^3 cells/well). […] The culture medium was removed, washed with PBS, and then fixed with 4% paraformaldehyde at room temperature for 10 minutes. After washed three times with PBS, the cells were permeabilized with PBS-T containing 0.5% Triton X-100 for 10 minutes, washed with PBS-T three times for 10 minutes each, and then blocked with a blocking solution (PBS-T containing 5% BSA and 5% goat serum) for 1 hour. Thereafter, the cells were treated with anti-Tuj1 antibody (Cat. 801201, BioLegend) diluted 1/5000 in a blocking solution and incubated at 4° C. overnight. The next day, the cells were washed 10 times for 10 minutes each with PBS-T, and then treated with anti-mouse IgG-cy3 diluted 1/2000 in a blocking solution, and incubated for 1 hour in dark conditions. Next, the cells were washed 10 times for 10 minutes each with PBS-T, mounted with a mounting solution containing DAPI, and then observed with a confocal microscope.

The test system of experiment [3] is UCB-MSCs. Description: CellTiter-Glo proliferation assay. Format: cell-based, human. Conditions: 10, 20, or 40 μM; 3 or 5 days. How it is done: Thereafter, 100 μl of a CellTiter-Glo reagent prepared by mixing a CellTiter-Glo Buffer with a CellTiter-Glo substrate was added to each well of a 96-well plate, covered with a plate cover, and incubated at room temperature for 30 minutes.

The target in experiment [4] is CtBP1 (Homo sapiens, UniProt Q13363). As to the kind of experiment: Immunoprecipitation, CtBP1 oligomerization in UCB-MSCs. As to conditions: YJ102 20 μM; FLAG-CtBP1 + HA-CtBP1, 48 hours. On the set-up: expressed in transfected cells; host or cells: human UCB-MSC. The experiment is classed as cell-based. How it is done:
To determine the effect of YJ102 on the regulation of oligomerization of C-terminal Binding Proteins (CtBPs) in human UCB-MSCs, immunoprecipitation analysis was performed. Specifically, UCB-MSCs were dispensed at 4×10^5 cells/ml in a 60 mm culture dish, and the next day, FLAG-CtBP1, HA-CtBP1, FLAG-CtBP2, and HA-CtBP1 were transfected into cells using 4 μl jetPRIME. Thereafter, the cells were treated with YJ102 (stock 30 mM in DMSO) and MTOB (stock 300 mM in DMSO) at 20 μM and 300 μM, respectively (Table 1). After 48 hours of transfection, proteins were extracted in the same manner as in Example 1-1. Protein G agarose slurry was washed with PBS and blocked with 1 ml of 1% BSA, washed with PBS, and added with 1 μg of anti-HA antibody diluted with 1.5 ml of PBS and incubated at 4° C. for 2 hours. Thereafter, the cells were centrifuged at 3,000×g for 2 minutes to remove the supernatant, washed with an IP150 buffer two times, added with 1 μg of the protein extracted above, and incubated at 4° C. overnight. After incubation, the cells were centrifuged at 3,000×g for 2 minutes to remove the supernatant, washed with PBS three times, added with 50 μl of 1 mg/ml HA peptide diluted with PBS, and incubated at room temperature for 10 minutes. […]

Take `CCc1ccc(N(C(=O)COC)c2nc3cc(Cl)ccc3o2)cc1` [YJ102]: the “overexpressed CtBP2 protection from degradation by pronase (DARTS)” value in experiment [1] (FLAG-CtBP2 transfected UCB-MSC lysate) was “protected”. For the same molecule, the “CtBP2 protection from degradation by pronase (DARTS)” value in experiment [1] (endogenous CtBP2, UCB-MSC lysate) is reported as “protected”. The “binding to CtBP2” value in experiment [1] (human UCB-MSC) was “bound to CtBP1 and CtBP2”. Also, the “expression of Tuj1” value in experiment [2] is “increased”. Further, in experiment [3], the “cell proliferation (CellTiter-Glo)” value is recorded as “reduced cell proliferation in a concentration-dependent manner”. For the same molecule, in experiment [4], the “oligomerization of CtBP1” value is reported as “induced oligomerization”.
